Assay results from PMC10535864, “Novel Aminopyrimidine-2,4-diones, 2-Thiopyrimidine-4-ones, and 6-Arylpteridines as Dual-Target Inhibitors of BRD4/PLK1: Design, Synthesis, Cytotoxicity, and Computational Studies” (Pharmaceuticals, 2023).
Read-outs that look alike come from different tables or passages of the source. Blank lines part the entries; values can stand above or below the molecule they belong to.

Experiments:
[1] = tested on: MDA-MB-231 breast cancer cells; assay: MTT cytotoxicity assay, MDA-MB-231; assay type: cell-based; settings: for IC50 / viability at 0.312 µM / viability at 0.625 µM / viability at 1.25 µM / viability at 2.5 µM / viability at 5 µM / viability at 10 µM: Homo sapiens; for IC50 / viability at 0.312 µM / viability at 0.625 µM / viability at 1.25 µM / viability at 2.5 µM / viability at 5 µM / viability at 10 µM / Toxicity %: MDA-MB-231; for Selectivity Indices (SI) MDA-MB-231: SI = IC50 normal cells (Vero)/IC50 cancer cells, ≥5 highly, >2 moderately, <2 non-selective
Method in brief: (§1)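 Cells seeded at 1 X 10^5 cells/mL and grown 24 h at 37°C to a monolayer, then exposed to two-fold compound dilutions in RPMI with 2% serum, six doses. MTT added for 4 h at 37°C, formazan dissolved in DMSO, OD read at 560 nm minus 620 nm background. IC50 from dose-response.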

[2] = tested on: HT-29 colorectal adenocarcinoma cells; assay: MTT cytotoxicity assay, HT-29; assay type: cell-based; settings: for viability at 0.312 µM / viability at 0.625 µM / viability at 1.25 µM / viability at 2.5 µM / viability at 5 µM / viability at 10 µM / IC50: Homo sapiens, HT-29; for Selectivity Indices (SI) HT-29: SI = IC50 normal cells (Vero)/IC50 cancer cells
Method in brief: as §1

[3] = MTT cytotoxicity assay, U-937; assay type: cell-based; settings: Homo sapiens, U-937, U937, MTT;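 also: Six-dose MTT colorimetric assay on cell monolayers, formazan absorbance read at 560 nm with 620 nm background removed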
[4] = tested on: U-937 renal cancer cells; assay: MTT cytotoxicity assay, U-937; assay type: cell-based; settings: for IC50: Homo sapiens, U-937; for Selectivity Indices (SI) U-937: SI = IC50 normal cells (Vero)/IC50 cancer cells;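 as to all read-outs here: Six-dose MTT colorimetric assay on cell monolayers, formazan absorbance read at 560 nm with 620 nm background removed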
[5] = MTT cytotoxicity assay, normal Vero cells; assay type: cell-based; settings: African green monkey, normal Vero cells, MTT; for IC50: mean of three independent experiments ± SD, read-out: In Vitro Cytotoxicity against Normal Cells IC50 Value, Vero Cells; for viability at 0.312 µM / viability at 0.625 µM / viability at 1.25 µM / viability at 2.5 µM / viability at 5 µM / viability at 10 µM: Vero
Procedure: (§2) Using a six-dose MTT colorimetric assay [44, 66], all new synthetic compounds were tested for cytotoxicity against three cancer cell lines: MDA-MB-231 breast cancer cells, HT-29 colorectal adenocarcinoma cells, and U-937 renal cancer cells. […] These cell lines were supplied by ATCC (American Type Culture Collection) via the Holding company for biological products and vaccines (VACSERA, Cairo, Egypt). The reference control used was Methotrexate.
1.1.In-vitro cytotoxicity screening
(§3) Using a six-dose MTT colorimetric assay [44, 66], allnew synthetic compounds were tested for cytotoxicity against three cancer cell lines: MDA-MB-231 breast cancer cells,HT-29 colorectal adenocarcinoma cells, and U-937 renal
(§4) The cell lines were supplied by ATCC (American Type Culture Collection). The reference control used was Methotrexate. The cytotoxic activities of the examined compounds were quantified by inoculating a 96-well tissue culture plate with 1 X 10^5 cells / mL (100 uL/well) and incubating it at 37°C for 24 hours to develop a complete monolayer sheet. After forming a confluent sheet of cells, the growth medium was decanted from 96-well microtiter plates, and the cell monolayer was washed twice with wash media. Two-fold dilutions of tested samples were made in RPMI medium with 2% serum (maintenance medium), and 0.1 mL of each dilution was tested in different wells, with three wells serving as controls and receiving only maintenance medium. Following that, the plate was incubated at 37°C and examined. Cells were investigated for any physical signs of toxicity, such as partial or complete monolayer loss, rounding, shrinkage, or cell granulation. MTT solution was prepared (5mg/ml in PBS) (BIO BASIC CANADA INC), and 20 uL MTT solution was added to each well. After 5 minutes on a shaking table at150 rpm to thoroughly mix the MTT into the media, it was incubated (37C, 5% CO2) for 4 hours to allow the MTT to be metabolized. Formazan (MTT metabolic product) was resuspended in 200 uL DMSO and shaken at 150 rpm for 5 minutes to thoroughly mix the formazan into the solvent. The optical density was measured at 560 nm, and the background was subtracted at 620 nm. Finally, the IC50 of the test compound in comparison to the reference was calculated using the GraphPad Prism software.

[6] = tested on: normal Vero cells; assay: MTT cytotoxicity assay, normal Vero cells; assay type: cell-based; settings: Vero; for IC50: Chlorocebus sabaeus, supplement viability lab report; for Toxicity %: MTT
Procedure: as §2
1.1.In-vitro cytotoxicity screening
as §3, §4

[7] = target: T1, BRD4 (BD2) (Homo sapiens, UniProt O60885); assay: BRD4 inhibitory activity assay (AlphaLISA Bromodomain Assay); assay type: binding; settings: for %inh: BRD4 Lab Report; for IC50: mean of three independent experiments, read-out: BRD4 IC50 ± SD;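 as to all read-outs here: in vitro inhibition of recombinant BRD4 BD2 bromodomain binding to a BET bromodomain ligand, read by AlphaLISA proximity signal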
T1 construct: BRD4 (BD2) should be thawed on ice; purchased
Procedure: The BRD4 and PLK1 inhibitory assays were carried out in vitro in accordance with the manufacturer’s instructions; BRD4 was assessed using AlphaLISA Bromodomain Assay Protocol [67], and PLK1 kinase was tested using the ADP-Glo™ Kinase Assay Protocol [68], as detailed in the Supplementary file.
The BRD4 and PLK1 inhibitory assays were carried out in vitro in accordance with the manufacturer's instructions; BRD4 was assessed using AlphaLISA Bromodomain Assay Protocol [67], and PLK1 kinase was tested using the ADP-Glo™ Kinase Assay Protocol [68],
The master mixture was prepared as follows: N wells × (2.5 µL 3x BRD Homogeneous Assay Buffer 1 + 1 µL BET Bromodomain Ligand + 1.5 µL H2O). BRD4 (BD2) should be thawed on ice. Simply, the protein-containing tube was spined to recover the full content of the tube after the firstthaw. Both proteins should be aliquoted into single-use aliquots. Immediately, any remaining undiluted protein should be stored in aliquots at -80°C. BRD4 (BD2) was diluted in 1x BRD Homogeneous Assay Buffer 1 at 4 ng/µL. The diluted proteins were kept on ice until they were used. 5 µl of the master mixture is added to each well designated for the “Positive Control”, “Test Inhibitor”, and “Blank”. For the “Substrate Control”, 2.5 µL 3x BRD Homogeneous Assay Buffer 1 + 1 µL Non-acetylated Ligand 1 + 1.5 µL H2O is added. Each “Test Inhibitor” well received 2.5 µL of inhibitor solution, while the “Positive
Control”, “Substrate Control”, and “Blank” wells received 2.5 µL of the same solution without inhibitor (inhibitor buffer). Then, the “Blank” well is filled with 2.5 µL of 1x BRD Homogeneous Assay Buffer 1. After that, GSH
10 µL per well is added, the plate isshaken, and itis incubated at room temperature for 30 minutes. Streptavidin-
10 µL is added per well and incubated at room temperature for further 15 – 30 minutes [67]. The Alpha counts were read using the EnVision® multimode plate reader with the standard Alpha detection settings.

[8] = target: human recombinant PLK1 (Homo sapiens, UniProt P53350); assay: PLK1 inhibitory activity assay (ADP-Glo Kinase Assay); assay type: biochemical; settings: for %inh: PLK1 Lab Report; for IC50: mean of three independent experiments, read-out: PLK1 IC50 ± SD
Procedure: The BRD4 and PLK1 inhibitory assays were carried out in vitro in accordance with the manufacturer’s instructions; BRD4 was assessed using AlphaLISA Bromodomain Assay Protocol, and PLK1 kinase was tested using the ADP-Glo™ Kinase Assay Protocol, as detailed in the Supplementary file. […]
1.2.2. PLK1 inhibitory activity assay
The kinase reaction was performed with active human recombinant PLK1 and combined with the substrate dephosphorylated casein (positive control) using 1 X reaction buffer (40 mM Tris-HCl pH 7.4, 20 mM MgCl2, 0.1 mg/mL BSA, 1 mM DTT) and 20 μM ATP. The reaction was incubated at30°C for 45 minutes. The amount of ATP transferred was calculated using […] reagent from Promega according to the manufacturer’s instruction.
A plate-reading luminometer isused to measure the luminescence. […]

[9] = MTT, mean of three independent experiments ± SD, read-out: IC50 Value MDA-MB-231
[10] = supplement viability lab report, read-out: IC50 ± SD
[11] = MTT, mean of three independent experiments ± SD, read-out: IC50 Value HT-29
[12] = supplement viability lab report, HT29, read-out: IC50 ± SD
[13] = MTT, mean of three independent experiments ± SD, read-out: IC50 Value U-937
[14] = supplement viability lab report, U937, read-out: IC50 ± SD

human recombinant PLK1, sequence (P53350 whole entry): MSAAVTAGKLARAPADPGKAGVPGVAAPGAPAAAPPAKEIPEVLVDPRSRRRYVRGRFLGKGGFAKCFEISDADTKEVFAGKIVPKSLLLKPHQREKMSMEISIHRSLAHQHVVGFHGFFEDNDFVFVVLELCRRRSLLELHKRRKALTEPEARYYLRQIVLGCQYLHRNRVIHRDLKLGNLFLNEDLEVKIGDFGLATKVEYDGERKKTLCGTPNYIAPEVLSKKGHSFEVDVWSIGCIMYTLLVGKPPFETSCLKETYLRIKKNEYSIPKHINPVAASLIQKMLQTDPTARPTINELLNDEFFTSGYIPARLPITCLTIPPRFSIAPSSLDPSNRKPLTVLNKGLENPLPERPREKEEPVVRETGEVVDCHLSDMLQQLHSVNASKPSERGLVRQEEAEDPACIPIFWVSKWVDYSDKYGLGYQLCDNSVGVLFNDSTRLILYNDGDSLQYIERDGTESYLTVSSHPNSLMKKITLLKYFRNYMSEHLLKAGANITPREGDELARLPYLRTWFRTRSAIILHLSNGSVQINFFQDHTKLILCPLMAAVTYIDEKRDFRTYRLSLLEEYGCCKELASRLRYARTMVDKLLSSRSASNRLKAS

- %inh ([7]; conc 0.01 (unit not given)): 30%
- %inh ([7]; conc 0.1 (unit not given)): 46%
- %inh ([7]; conc 1 (unit not given)): 67%
- %inh ([7]; conc 10 (unit not given)): 83%
- %inh ([7]; conc 100 (unit not given)): 94%
- IC50 [7]: 0.077 ± 0.003 µM
- %inh ([8]; conc 0.01 (unit not given)): 28%
- %inh ([8]; conc 0.1 (unit not given)): 40%
- %inh ([8]; conc 1 (unit not given)): 65%
- %inh ([8]; conc 10 (unit not given)): 80%
- %inh ([8]; conc 100 (unit not given)): 94%
- IC50 [8]: 0.204 ± 0.009 µM
SMILES: COc1ccc(/C(CBr)=N\c2c(N)n(Cc3ccccc3Cl)c(=O)[nH]c2=O)cc1 [Compound 6b, (E)-6-Amino-5-((2-bromo-1-(4-methoxyphenyl)ethylidene)amino)-1-(2-chlorobenzyl) pyrimidine-2,4(1H,3H)-dione]
- IC50 [1, 9]: 1 ± 0.02 µM
- viability at 0.312 µM ([1]; MTT, 0.312 uM): 84.9%
- viability at 0.625 µM ([1]; MTT, 0.625 uM): 26.6%
- viability at 1.25 µM ([1]; MTT, 1.25 uM): 10.2%
- viability at 2.5 µM ([1]; MTT, 2.5 uM): 8.47%
- viability at 5 µM ([1]; MTT, 5 uM): 8.55%
- viability at 10 µM ([1]; MTT, 10 uM): 4.7%
- IC50 [1, 10]: 0.63 µM
- Toxicity % ([1]; MTT, 0.312 uM): 15.07%
- Toxicity % ([1]; MTT, 0.625 uM): 73.45%
- Toxicity % ([1]; MTT, 1.25 uM): 89.85%
- Toxicity % ([1]; MTT, 2.5 uM): 91.53%
- Toxicity % ([1]; MTT, 5 uM): 91.45%
- Toxicity % ([1]; MTT, 10 uM): 95.3%
- Selectivity Indices (SI) MDA-MB-231 [1]: 1.95
- Toxicity % ([2]; HT29, MTT, 0.312 uM): 0.3876%
- Toxicity % ([2]; HT29, MTT, 0.625 uM): 47.33%
- Toxicity % ([2]; HT29, MTT, 1.25 uM): 95.82%
- Toxicity % ([2]; HT29, MTT, 2.5 uM): 95.95%
- Toxicity % ([2]; HT29, MTT, 5 uM): 95.61%
- Toxicity % ([2]; HT29, MTT, 10 uM): 93.71%
- viability at 0.312 µM ([2]; HT29, MTT, 0.312 uM): 99.6%
- viability at 0.625 µM ([2]; HT29, MTT, 0.625 uM): 52.7%
- viability at 1.25 µM ([2]; HT29, MTT, 1.25 uM): 4.18%
- viability at 2.5 µM ([2]; HT29, MTT, 2.5 uM): 4.05%
- viability at 5 µM ([2]; HT29, MTT, 5 uM): 4.39%
- viability at 10 µM ([2]; HT29, MTT, 10 uM): 6.29%
- IC50 [2, 11]: 1.69 ± 0.01 µM
- IC50 [2, 12]: 0.75 µM
- Selectivity Indices (SI) HT-29 [2]: 1.15
- viability at 0.312 µM [3]: 99.1%
- viability at 0.625 µM [3]: 77.5%
- viability at 1.25 µM [3]: 28%
- viability at 2.5 µM [3]: 12.2%
- viability at 5 µM [3]: 10.4%
- viability at 10 µM [3]: 9.69%
- IC50 [4, 13]: 1.12 ± 0.02 µM
- IC50 [4, 14]: 0.97 µM
- Selectivity Indices (SI) U-937 [4]: 1.74
- Toxicity % ([4]; U937, MTT, 0.312 uM): 0.9259%
- Toxicity % ([4]; U937, MTT, 0.625 uM): 22.49%
- Toxicity % ([4]; U937, MTT, 1.25 uM): 72%
- Toxicity % ([4]; U937, MTT, 2.5 uM): 87.8%
- Toxicity % ([4]; U937, MTT, 5 uM): 89.6%
- Toxicity % ([4]; U937, MTT, 10 uM): 90.31%
- IC50 [5]: 1.95 ± 0.05 µM
- viability at 0.312 µM [5]: 99.1%
- viability at 0.625 µM [5]: 99.1%
- viability at 1.25 µM [5]: 70.3%
- viability at 2.5 µM [5]: 38.4%
- viability at 5 µM [5]: 12.8%
- viability at 10 µM [5]: 6.15%
- IC50 [6]: 2.06 µM
- Toxicity % ([6]; 0.312 uM): 0.9182%
- Toxicity % ([6]; 0.625 uM): 0.8782%
- Toxicity % ([6]; 1.25 uM): 29.74%
- Toxicity % ([6]; 2.5 uM): 61.6%
- Toxicity % ([6]; 5 uM): 87.19%
- Toxicity % ([6]; 10 uM): 93.85%

- %inh ([7]; conc 0.01 (unit not given)): 34%
- %inh ([7]; conc 0.1 (unit not given)): 49%
- %inh ([7]; conc 1 (unit not given)): 73%
- %inh ([7]; conc 10 (unit not given)): 88%
- %inh ([7]; conc 100 (unit not given)): 95%
- IC50 [7]: 0.141 ± 0.006 µM
- %inh ([8]; conc 0.01 (unit not given)): 25%
- %inh ([8]; conc 0.1 (unit not given)): 42%
- %inh ([8]; conc 1 (unit not given)): 65%
- %inh ([8]; conc 10 (unit not given)): 87%
- %inh ([8]; conc 100 (unit not given)): 94%
- IC50 [8]: 0.218 ± 0.01 µM
SMILES: CCn1c(N)c(/N=C(/CBr)c2ccc(OC)cc2)c(=O)[nH]c1=O [Compound 6a, (E)-6-Amino-5-((2-bromo-1-(4-methoxyphenyl)ethylidene)amino)-1-ethylpyrimidine-2,4(1H,3H)-dione]
- IC50 [1, 9]: 0.63 ± 0.01 µM
- viability at 0.312 µM ([1]; MTT, 0.312 uM): 100%
- viability at 0.625 µM ([1]; MTT, 0.625 uM): 98.9%
- viability at 1.25 µM ([1]; MTT, 1.25 uM): 27.1%
- viability at 2.5 µM ([1]; MTT, 2.5 uM): 5.98%
- viability at 5 µM ([1]; MTT, 5 uM): 3.37%
- viability at 10 µM ([1]; MTT, 10 uM): 4.03%
- IC50 [1, 10]: 1 µM
- Toxicity % ([1]; MTT, 0.312 uM): 0.04433%
- Toxicity % ([1]; MTT, 0.625 uM): 1.064%
- Toxicity % ([1]; MTT, 1.25 uM): 72.92%
- Toxicity % ([1]; MTT, 2.5 uM): 94.02%
- Toxicity % ([1]; MTT, 5 uM): 96.63%
- Toxicity % ([1]; MTT, 10 uM): 95.97%
- Selectivity Indices (SI) MDA-MB-231 [1]: 3.27
- Toxicity % ([2]; HT29, MTT, 0.312 uM): 0.3876%
- Toxicity % ([2]; HT29, MTT, 0.625 uM): 0.04307%
- Toxicity % ([2]; HT29, MTT, 1.25 uM): 26.57%
- Toxicity % ([2]; HT29, MTT, 2.5 uM): 89.88%
- Toxicity % ([2]; HT29, MTT, 5 uM): 95.95%
- Toxicity % ([2]; HT29, MTT, 10 uM): 95.74%
- viability at 0.312 µM ([2]; HT29, MTT, 0.312 uM): 99.6%
- viability at 0.625 µM ([2]; HT29, MTT, 0.625 uM): 100%
- viability at 1.25 µM ([2]; HT29, MTT, 1.25 uM): 73.4%
- viability at 2.5 µM ([2]; HT29, MTT, 2.5 uM): 10.1%
- viability at 5 µM ([2]; HT29, MTT, 5 uM): 4.05%
- viability at 10 µM ([2]; HT29, MTT, 10 uM): 4.26%
- IC50 [2, 11]: 0.75 ± 0.01 µM
- IC50 [2, 12]: 1.69 µM
- Selectivity Indices (SI) HT-29 [2]: 2.75
- viability at 0.312 µM [3]: 99.1%
- viability at 0.625 µM [3]: 96.1%
- viability at 1.25 µM [3]: 40.3%
- viability at 2.5 µM [3]: 14.5%
- viability at 5 µM [3]: 13.2%
- viability at 10 µM [3]: 9.91%
- IC50 [4, 13]: 0.97 ± 0.01 µM
- IC50 [4, 14]: 1.12 µM
- Selectivity Indices (SI) U-937 [4]: 2.12
- Toxicity % ([4]; U937, MTT, 0.312 uM): 0.8715%
- Toxicity % ([4]; U937, MTT, 0.625 uM): 3.867%
- Toxicity % ([4]; U937, MTT, 1.25 uM): 59.69%
- Toxicity % ([4]; U937, MTT, 2.5 uM): 85.46%
- Toxicity % ([4]; U937, MTT, 5 uM): 86.76%
- Toxicity % ([4]; U937, MTT, 10 uM): 90.09%
- IC50 [5]: 2.06 ± 0.03 µM
- viability at 0.312 µM [5]: 99.8%
- viability at 0.625 µM [5]: 99.2%
- viability at 1.25 µM [5]: 83.6%
- viability at 2.5 µM [5]: 26.8%
- viability at 5 µM [5]: 11.6%
- viability at 10 µM [5]: 4.59%
- IC50 [6]: 1.95 µM
- Toxicity % ([6]; 0.312 uM): 0.1996%
- Toxicity % ([6]; 0.625 uM): 0.7585%
- Toxicity % ([6]; 1.25 uM): 16.37%
- Toxicity % ([6]; 2.5 uM): 73.21%
- Toxicity % ([6]; 5 uM): 88.38%
- Toxicity % ([6]; 10 uM): 95.41%
